# Laboratory results taken from ChEMBL document CHEMBL1155011, “Structure-activity relationships of the cycloalkanol ethylamine scaffold: discovery of selective norepinephrine reuptake inhibitors” (J Med Chem, 2008).
# How the values were obtained:
# [1] = biological target: T1, Sodium-dependent dopamine transporter (Homo sapiens, UniProt Q01959); experiment: biochemical
# [2] = biological target: T2, Sodium-dependent noradrenaline transporter (Homo sapiens, UniProt P23975)
# [3] = biological target: T2, Sodium-dependent noradrenaline transporter; experiment: biochemical
# [4] = biological target: T3, Sodium-dependent serotonin transporter (Homo sapiens, UniProt P31645); experiment: Inhibition of 5HT uptake at human SERT expressed in human JAR cells at 1000 nM; assay type: cell-based
# Target sequence in this assay (P31645 whole entry, looked up): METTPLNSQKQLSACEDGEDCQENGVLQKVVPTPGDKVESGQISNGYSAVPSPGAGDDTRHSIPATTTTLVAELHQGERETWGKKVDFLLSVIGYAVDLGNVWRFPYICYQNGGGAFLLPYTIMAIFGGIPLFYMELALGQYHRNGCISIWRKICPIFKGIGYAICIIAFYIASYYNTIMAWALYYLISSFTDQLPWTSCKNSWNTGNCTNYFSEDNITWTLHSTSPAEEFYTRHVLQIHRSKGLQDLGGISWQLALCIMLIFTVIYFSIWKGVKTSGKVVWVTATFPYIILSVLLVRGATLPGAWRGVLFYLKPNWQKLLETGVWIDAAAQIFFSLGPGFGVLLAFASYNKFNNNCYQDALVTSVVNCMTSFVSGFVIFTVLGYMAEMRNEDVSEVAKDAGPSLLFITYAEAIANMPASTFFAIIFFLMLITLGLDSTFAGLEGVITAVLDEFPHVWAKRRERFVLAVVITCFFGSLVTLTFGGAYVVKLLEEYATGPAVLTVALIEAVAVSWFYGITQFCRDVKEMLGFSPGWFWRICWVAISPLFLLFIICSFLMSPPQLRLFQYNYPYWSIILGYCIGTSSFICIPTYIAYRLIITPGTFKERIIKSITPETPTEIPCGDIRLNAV
# [5] = biological target: T1, Sodium-dependent dopamine transporter; experiment: Displacement of [3H]WIN-35428 from human recombinant dopamine transporter expressed in CHO cells at 1000 nM; assay type: cell-based
# [6] = biological target: T2, Sodium-dependent noradrenaline transporter; experiment: Inhibition of norepinephrine uptake at human norepinephrine transporter expressed in MDCK-Net6 cells at 1000 nM; assay type: cell-based
# [7] = biological target: T3, Sodium-dependent serotonin transporter; assay type: cell-based, JAR
# Target sequence in this assay (P31645 whole entry): as the sequence (P31645 whole entry, looked up) above
# [8] = biological target: T2, Sodium-dependent noradrenaline transporter; experiment: Displacement of [3H]nisoxetine from human norepinephrine transporter expressed in MDCK-Net6 cells at 1000 nM; assay type: cell-based
# Transporter = Transporter (Rattus norvegicus, UniProt Q63380)
# Sequence of Transporter (Q63380 whole entry): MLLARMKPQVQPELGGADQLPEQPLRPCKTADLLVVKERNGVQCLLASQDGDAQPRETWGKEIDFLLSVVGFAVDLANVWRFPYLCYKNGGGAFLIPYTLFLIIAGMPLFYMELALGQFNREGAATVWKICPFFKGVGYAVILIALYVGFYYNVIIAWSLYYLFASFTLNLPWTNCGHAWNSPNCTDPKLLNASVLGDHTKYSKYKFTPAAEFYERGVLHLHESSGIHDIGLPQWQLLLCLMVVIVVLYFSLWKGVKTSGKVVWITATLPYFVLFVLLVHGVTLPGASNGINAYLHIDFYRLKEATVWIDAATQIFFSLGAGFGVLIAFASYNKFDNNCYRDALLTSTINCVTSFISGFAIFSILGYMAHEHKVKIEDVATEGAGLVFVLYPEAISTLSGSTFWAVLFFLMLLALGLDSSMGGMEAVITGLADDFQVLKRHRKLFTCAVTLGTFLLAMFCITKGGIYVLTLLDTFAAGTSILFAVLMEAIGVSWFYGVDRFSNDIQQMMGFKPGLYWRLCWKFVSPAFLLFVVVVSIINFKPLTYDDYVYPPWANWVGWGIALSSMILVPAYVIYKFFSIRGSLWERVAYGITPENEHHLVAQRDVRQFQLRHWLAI
# Description: Inhibition of norepinephrine uptake at rat brain norepinephrine transporter
# T1 sequence (Q01959 whole entry): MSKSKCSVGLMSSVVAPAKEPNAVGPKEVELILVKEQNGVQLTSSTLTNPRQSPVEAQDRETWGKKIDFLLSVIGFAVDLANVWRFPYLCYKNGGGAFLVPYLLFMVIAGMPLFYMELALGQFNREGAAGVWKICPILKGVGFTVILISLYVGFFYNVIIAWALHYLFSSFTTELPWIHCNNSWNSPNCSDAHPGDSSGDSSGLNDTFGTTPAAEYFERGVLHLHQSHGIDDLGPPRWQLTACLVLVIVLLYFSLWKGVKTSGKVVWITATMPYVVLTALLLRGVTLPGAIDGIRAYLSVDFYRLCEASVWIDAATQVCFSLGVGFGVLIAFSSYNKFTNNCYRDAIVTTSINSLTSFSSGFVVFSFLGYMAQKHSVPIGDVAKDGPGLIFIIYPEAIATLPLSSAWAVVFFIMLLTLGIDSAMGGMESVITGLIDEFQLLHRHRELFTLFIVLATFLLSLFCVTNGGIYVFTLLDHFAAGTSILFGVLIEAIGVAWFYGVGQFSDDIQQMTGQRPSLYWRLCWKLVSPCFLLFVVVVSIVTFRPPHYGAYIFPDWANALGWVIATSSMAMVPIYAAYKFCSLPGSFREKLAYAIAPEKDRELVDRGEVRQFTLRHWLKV
# T2 sequence (P23975 whole entry): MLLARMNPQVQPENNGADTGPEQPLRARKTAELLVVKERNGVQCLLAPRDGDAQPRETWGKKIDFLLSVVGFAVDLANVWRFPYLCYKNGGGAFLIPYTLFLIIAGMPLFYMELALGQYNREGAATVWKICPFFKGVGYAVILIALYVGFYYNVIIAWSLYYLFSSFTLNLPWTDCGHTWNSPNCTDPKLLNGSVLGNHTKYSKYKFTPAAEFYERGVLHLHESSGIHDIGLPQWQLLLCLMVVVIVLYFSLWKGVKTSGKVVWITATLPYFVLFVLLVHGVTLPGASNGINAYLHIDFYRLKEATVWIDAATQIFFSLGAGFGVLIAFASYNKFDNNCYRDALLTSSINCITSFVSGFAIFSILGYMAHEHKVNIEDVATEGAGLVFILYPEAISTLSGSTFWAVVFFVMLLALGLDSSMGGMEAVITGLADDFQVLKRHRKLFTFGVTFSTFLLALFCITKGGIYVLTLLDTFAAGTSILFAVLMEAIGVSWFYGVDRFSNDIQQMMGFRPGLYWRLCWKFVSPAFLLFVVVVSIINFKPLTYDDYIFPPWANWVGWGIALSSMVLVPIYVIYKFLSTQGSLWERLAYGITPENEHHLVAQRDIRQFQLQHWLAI
SMILES,Ki [1] [nM],IC50 [2] [nM],Ki [3] [nM],inhibition [4] [%],Activity [5] [%],inhibition [6] [%],IC50 [7] [µM],Activity [8] [%],IC50 (Transporter) [nM]
CN1CCN(C[C@H](c2cccc(Cl)c2)C2(O)CCCCC2)CC1,73,29,14,9,,,,,
CN1CCN(CC(c2cccc(C(F)(F)F)c2)C2(O)CCCCC2)CC1 (centres undefined),,92,61,28,6,,,,
COc1cccc(C(CN2CCN(C)CC2)C2(O)CCCCC2)c1 (centres undefined),,600,514,14,4,,,,
CN1CCN(C[C@@H](c2cccc(Cl)c2)C2(O)CCCCC2)CC1,235,577,187,0,,,,,
CN1CCN(CC(c2cccc(F)c2)C2(O)CCCCC2)CC1 (centres undefined),,240,364,12,29,,,,
CN(C)C[C@@H](c1cccc(Cl)c1)C1(O)CCCCC1,,,,,17,,,,
OC1(C(CN2CCNCC2)c2cccc(F)c2)CCCCC1 (centres undefined),,673,368,12,22,,,,
COc1ccc(C(CN2CCNCC2)C2(O)CCCCC2)cc1 (centres undefined),,,519,24,9,34,,,
CN1CCN(CC(c2ccc(Cl)cc2)C2(O)CCCCC2)CC1 (centres undefined),,,1220,0,26,7,,,
OC1([C@@H](CN2CCNCC2)c2cccc(OC(F)(F)F)c2)CCCCC1,,1290,544,11,15,,,,
OC1([C@H](CN2CCNCC2)c2cccc(Cl)c2)CCCCC1,135,25,17,,,,2.67,,
OC1([C@H](CN2CCNCC2)c2cccc(OC(F)(F)F)c2)CCCCC1,,140,117,3,13,,,,
CN1CCN(C[C@@H](c2cccc(OC(F)(F)F)c2)C2(O)CCCCC2)CC1,,,,4,5,,,,
CN1CCN(CC(c2cccc(Cl)c2)C2(O)CCCCC2)CC1 (centres undefined),53,58,46,,,,18.8,,
COc1cccc(C(CN2CCNCC2)C2(O)CCCCC2)c1 (centres undefined),,870,745,8,2,,,,
CN1CCN(CC(c2ccccc2F)C2(O)CCCCC2)CC1 (centres undefined),,,,,,19,,34,
CN(C)CC(c1cccc(Cl)c1)C1(O)CCCCC1 (centres undefined),,,,,28,,,,160
